US6455588B1, “Compositions including modafinil for treatment of eating disorders and for appetite stimulation” (Cephalon, Inc., priority 1999, dated 2002)

Experiments:
[1] = 400 mg/day, clinical trials; cited from earlier work
[2] = tested on: neurons of the TMN and VLPO of the hypothalamus; assay: Neuronal activity in hypothalamic nuclei (TMN, VLPO) after modafinil administration; assay type: in vivo, rats
From the text: Activation of this histaminergic pathway by modafinil results in cortical activation and wakefulness. Thus, it appears that the physiologic basis for the wake-promoting actions of modafinil involves disinhibition of histaminergic neurons of the TMN by inhibitory actions on the VLPO. This represents the first pharmacologic agent known to produce wakefulness by activation of the TMN.

orexin neurons = assay: Double immunostaining for orexin and Fos, cell counts in the perifornical region of modafinil-treated mice; assay type: in vivo; conditions: wild-type mice, 150 mg/kg i.p., 2 hours
Experimental: To determine that modafinil might act through orexin neurons, wild-type mice were injected at noon with modafinil (150 mg/kg i.p.), or vehicle, and sacrificed 2 hours later. Brains were removed, double immunostained for orexin and Fos (an indicator of neuronal activity), and cells were counted in the periforllical region. The number of orexin-immunoreactive neurons was the same in both groups (44-47 cells/section), but the modafinil-treated group had over three times as many Fos-immunoreactive neuronal nuclei (38 in the modafinil-treated mice vs. 11 in the vehicle controls; p=0.01). Within the population of orexin-immunoreactive neurons, modafinil induced a 9-fold increase in the number of Fos-immunoreactive cells (64% double labeled neurons in the modafinil group vs. 7% in the vehicle group, p=0.01) (FIG. 1). Thus, in the lateral hypothalamus, modafinil treatment is associated with activation of orexin neurons, and is thus useful as a treatment for eating disorders or for increasing appetite.

Structure (SMILES): NC(=O)C[S+]([O-])C(c1ccccc1)c1ccccc1 (stereo not drawn) [modafinil, 2-(benzhydrylsulfinyl) acetamide]
- tolerability [1]: well tolerated
- activity of the neurons in the ventrolateropreoptic area (VLPO) of the hypothalamus ([2]; rats): reduced the activity
- activity in the TMN of the posterior hypothalamus ([2]; wakefulness-promoting doses): stimulation of activity
- Fos-immunoreactive neuronal nuclei (orexin neurons; perifornical region, vehicle 11, p=0.01): 38
- double labeled (orexin/Fos) neurons within orexin-immunoreactive neurons (orexin neurons; vehicle 7%, p=0.01): 64%
- increase in the number of Fos-immunoreactive cells within orexin-immunoreactive neurons (orexin neurons; versus vehicle): 9 fold
